Source: patent US6630501B1, “Phosphinic pseudo-peptides that may be used as matrix zinc metalloprotease inhibitors” (Commissariat a l'energie Atomique, priority 1999, dated 2003)

Tests used:
[1] = molecular target: T1, MMP-11 (stromelysin-3, mST3) (Mus musculus, UniProt Q02853); test: Ki determination with fluorogenic synthetic substrates, recombinant MMP-11; assay type: biochemical, murine; conditions: for Ki: Tris/50 mM HCl buffer, pH 6.8, 10 mM CaCl2, 25° C., read-out: affinity constant Ki, MMP-11 mST3
T1 construct: made in house; host or cells: E. coli
T1 sequence (Q02853 102-492): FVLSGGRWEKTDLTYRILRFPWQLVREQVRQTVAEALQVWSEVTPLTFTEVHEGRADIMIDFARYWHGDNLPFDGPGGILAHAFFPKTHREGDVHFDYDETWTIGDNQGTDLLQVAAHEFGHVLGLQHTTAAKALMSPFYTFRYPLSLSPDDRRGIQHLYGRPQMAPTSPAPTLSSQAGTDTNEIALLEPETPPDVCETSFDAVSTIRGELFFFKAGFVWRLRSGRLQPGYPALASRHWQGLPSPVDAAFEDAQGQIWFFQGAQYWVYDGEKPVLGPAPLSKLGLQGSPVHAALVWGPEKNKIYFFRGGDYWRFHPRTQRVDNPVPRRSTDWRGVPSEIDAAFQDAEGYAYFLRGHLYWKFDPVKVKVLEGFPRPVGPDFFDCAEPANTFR
Procedure: (§1) The MMPs used were produced in recombinant form, in an E. coli expression system, and then purified using different types of chromatographies. Apart from stromelysin-3 (MMP-11), the MMPs produces correspond to human sequences. The Stromelysin-3 used in this study corresponds to the murine form.
(§2) The activity of each MMP was determined using two fluorogenic synthetic substrates. The cutoff of said substrates, which generates a fluorescent signal proportional to the quantity of split substrate, enables a precise determination of the kinetic parameters. The affinity constants Ki were calculated using the equation of Horowitz et al, Proc. Natl. Acad. Sci. USA, 1987, 84, p. 6654-6658 [14], accounting for the dependency of the percentage of inhibition measured experimentally according to the concentration of inhibitor, as a function of the enzyme and substrate concentration.
(§3) The experiments for conducted in a Tris/50 mM HCl buffer, pH 6.8, 10 mM CaCl2, 25° C.

MMP-2 (Gel-A) = molecular target: T2, MMP-2 (Gel-A) (Homo sapiens, UniProt P08253); test: Ki determination with fluorogenic synthetic substrates, recombinant MMP-2; assay type: biochemical; conditions: for Ki: Tris/50 mM HCl buffer, pH 6.8, 10 mM CaCl2, 25° C., read-out: affinity constant Ki, MMP-2 Gel-A
T2 construct: made in house; host or cells: E. coli
T2 sequence (P08253 110-660): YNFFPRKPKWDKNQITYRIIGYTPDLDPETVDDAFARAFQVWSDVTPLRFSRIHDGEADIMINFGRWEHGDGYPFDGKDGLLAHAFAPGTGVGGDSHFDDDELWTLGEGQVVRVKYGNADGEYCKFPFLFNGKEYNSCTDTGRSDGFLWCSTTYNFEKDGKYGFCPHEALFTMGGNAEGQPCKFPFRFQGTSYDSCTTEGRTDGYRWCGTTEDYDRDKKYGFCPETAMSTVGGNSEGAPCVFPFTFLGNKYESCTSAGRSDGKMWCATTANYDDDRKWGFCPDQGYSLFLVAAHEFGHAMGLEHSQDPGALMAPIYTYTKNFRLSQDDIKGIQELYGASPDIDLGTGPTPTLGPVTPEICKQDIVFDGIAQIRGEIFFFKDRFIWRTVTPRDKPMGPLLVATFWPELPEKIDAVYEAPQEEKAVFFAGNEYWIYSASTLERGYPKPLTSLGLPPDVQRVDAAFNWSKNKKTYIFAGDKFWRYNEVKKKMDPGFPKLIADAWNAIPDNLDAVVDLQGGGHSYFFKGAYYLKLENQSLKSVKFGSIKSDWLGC
Procedure: as §1, §2, §3

MMP-9 (Gel-B) = molecular target: T3, MMP-9 (Gel-B) (Homo sapiens, UniProt P14780); test: Ki determination with fluorogenic synthetic substrates, recombinant MMP-9; assay type: biochemical; conditions: for Ki: Tris/50 mM HCl buffer, pH 6.8, 10 mM CaCl2, 25° C., read-out: affinity constant Ki, MMP-9 Gel-B
T3 construct: made in house; host or cells: E. coli
Procedure: as §1, §2, §3

MMP-14 (MT1-MMP) = molecular target: T4, MMP-14 (MT1-MMP) (Homo sapiens, UniProt P50281); test: Ki determination with fluorogenic synthetic substrates, recombinant MMP-14; assay type: biochemical; conditions: for Ki: Tris/50 mM HCl buffer, pH 6.8, 10 mM CaCl2, 25° C., read-out: affinity constant Ki, MMP-14 MT1-MMP
T4 construct: made in house; host or cells: E. coli
Procedure: as §1, §2, §3

MMP-1 (HFC) = molecular target: T5, MMP-1 (HFC) (Homo sapiens, UniProt P03956); test: Ki determination with fluorogenic synthetic substrates, recombinant MMP-1; assay type: biochemical; conditions: for inhibition at 1 µM: @ 1 μM inhibitor, read-out: percentage of inhibition, MMP-1
T5 construct: made in house; host or cells: E. coli
T5 sequence (P03956 100-469): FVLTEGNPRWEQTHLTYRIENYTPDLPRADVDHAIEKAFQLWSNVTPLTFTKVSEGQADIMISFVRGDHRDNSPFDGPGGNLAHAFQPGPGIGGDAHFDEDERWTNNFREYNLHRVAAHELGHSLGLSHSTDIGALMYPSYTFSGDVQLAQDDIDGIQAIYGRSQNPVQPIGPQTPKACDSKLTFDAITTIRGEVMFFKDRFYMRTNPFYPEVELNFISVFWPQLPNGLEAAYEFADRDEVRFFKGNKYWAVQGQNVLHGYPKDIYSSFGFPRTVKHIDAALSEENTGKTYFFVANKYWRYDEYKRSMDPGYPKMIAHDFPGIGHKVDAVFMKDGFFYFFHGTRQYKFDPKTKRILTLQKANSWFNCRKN
Procedure: as §1, §2, §3

MMP-7 (Matrilysin) = molecular target: T6, MMP-7 (Matrilysin) (Homo sapiens, UniProt P09237); test: Ki determination with fluorogenic synthetic substrates, recombinant MMP-7; assay type: biochemical; conditions: for percentage of inhibition, MMP-7: @ 50 mM inhibitor; for inhibition at 1 µM: @ 1 μM inhibitor, read-out: percentage of inhibition, MMP-7; for Ki: Tris/50 mM HCl buffer, pH 6.8, 10 mM CaCl2, 25° C., read-out: affinity constant Ki, MMP-7 Matrilysin
T6 construct: made in house; host or cells: E. coli
T6 sequence (P09237 95-267): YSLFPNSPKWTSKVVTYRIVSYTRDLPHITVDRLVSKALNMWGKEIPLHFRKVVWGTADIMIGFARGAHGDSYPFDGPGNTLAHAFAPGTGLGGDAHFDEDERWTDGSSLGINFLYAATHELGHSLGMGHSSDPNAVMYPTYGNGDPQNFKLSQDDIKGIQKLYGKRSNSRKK
Procedure: as §1, §2, §3

MMP-8 (HNC) = molecular target: T7, MMP-8 (HNC) (Homo sapiens, UniProt P22894); test: Ki determination with fluorogenic synthetic substrates, recombinant MMP-8; assay type: biochemical; conditions: for Ki: Tris/50 mM HCl buffer, pH 6.8, 10 mM CaCl2, 25° C., read-out: affinity constant Ki, MMP-8 HNC
T7 construct: made in house; host or cells: E. coli
Procedure: as §1, §2, §3

T3 sequence (P14780 94-707): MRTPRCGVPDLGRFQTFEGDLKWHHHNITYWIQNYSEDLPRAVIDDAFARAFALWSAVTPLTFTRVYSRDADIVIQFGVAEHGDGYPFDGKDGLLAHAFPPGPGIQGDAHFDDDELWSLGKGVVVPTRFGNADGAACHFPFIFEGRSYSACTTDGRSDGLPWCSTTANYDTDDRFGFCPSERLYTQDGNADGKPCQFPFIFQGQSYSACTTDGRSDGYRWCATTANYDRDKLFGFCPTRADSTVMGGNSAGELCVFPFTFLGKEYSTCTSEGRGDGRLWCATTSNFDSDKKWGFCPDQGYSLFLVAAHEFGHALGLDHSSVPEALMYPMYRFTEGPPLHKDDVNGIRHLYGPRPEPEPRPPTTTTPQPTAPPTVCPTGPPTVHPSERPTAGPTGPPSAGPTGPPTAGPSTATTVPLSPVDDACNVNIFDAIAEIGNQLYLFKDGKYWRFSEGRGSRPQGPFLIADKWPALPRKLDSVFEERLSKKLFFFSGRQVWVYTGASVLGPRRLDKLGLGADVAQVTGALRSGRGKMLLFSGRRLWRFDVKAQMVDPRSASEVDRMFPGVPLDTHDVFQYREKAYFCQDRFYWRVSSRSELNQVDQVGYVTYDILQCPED
T7 sequence (P22894 101-467): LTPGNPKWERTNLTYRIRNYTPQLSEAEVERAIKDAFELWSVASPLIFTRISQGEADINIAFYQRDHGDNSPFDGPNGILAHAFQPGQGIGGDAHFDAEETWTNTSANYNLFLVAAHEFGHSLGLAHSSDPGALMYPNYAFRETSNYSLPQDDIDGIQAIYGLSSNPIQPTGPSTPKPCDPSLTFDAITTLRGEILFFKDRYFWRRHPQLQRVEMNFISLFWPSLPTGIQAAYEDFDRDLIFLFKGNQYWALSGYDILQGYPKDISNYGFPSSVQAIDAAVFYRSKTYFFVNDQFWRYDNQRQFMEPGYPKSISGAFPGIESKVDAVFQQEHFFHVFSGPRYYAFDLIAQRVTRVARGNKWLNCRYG

Compound | Ki [1] [nM] | Ki (MMP-2 (Gel-A)) [nM] | Ki (MMP-9 (Gel-B)) [nM] | Ki (MMP-14 (MT1-MMP)) [nM] | Ki (MMP-8 (HNC)) [nM] | inhibition at 1 µM (MMP-1 (HFC)) [%] | inhibition at 1 µM (MMP-7 (Matrilysin)) [%] | further results
COc1ccc(CSCC(CP(=O)(O)C(Cc2ccccc2)NC(=O)OCc2ccccc2)C(=O)NC(Cc2c[nH]c3ccccc23)C(N)=O)cc1 (centres unmarked) [Compound 18] | 2 | 6 | 3 | 22 | 0.7 | – | – | inhibitory power on MMP-11, in words [1]: very powerful inhibitor; inhibitory power on MMP-2, in words (MMP-2 (Gel-A)): very powerful inhibitor; inhibitory power on MMP-9, in words (MMP-9 (Gel-B)): very powerful inhibitor; percentage of inhibition, MMP-1 (MMP-1 (HFC); @ 2 mM inhibitor): 13% @ 2 mM; percentage of inhibition, MMP-7 (MMP-7 (Matrilysin)): 84% @ 50 mM; inhibitory power on MMP-8, in words (MMP-8 (HNC)): very powerful inhibitor
NC(=O)[C@@H](Cc1c[nH]c2ccccc12)NC(=O)C(CCCc1ccccc1)CP(=O)(O)C(Cc1ccccc1)NC(=O)OCc1ccccc1 (some centres unmarked) [Compound 23] | – | – | – | – | – | – | – | percentage of inhibition, MMP-11 ([1]; @ 1 mM inhibitor): 1% @ 1 mM; percentage of inhibition, MMP-2 (MMP-2 (Gel-A); @ 2 mM inhibitor): 6% @ 2 mM; percentage of inhibition, MMP-9 (MMP-9 (Gel-B); @ 2 mM inhibitor): 14% @ 2 mM; percentage of inhibition, MMP-14 (MMP-14 (MT1-MMP); @ 10 mM inhibitor): 10% @ 10 mM; percentage of inhibition, MMP-1 (MMP-1 (HFC); @ 10 mM inhibitor): 3% @ 10 mM; percentage of inhibition, MMP-7 (MMP-7 (Matrilysin)): 18% @ 50 mM; percentage of inhibition, MMP-8 (MMP-8 (HNC); @ 1 mM inhibitor): 2% @ 1 mM
CC(=O)NC(Cc1ccccc1)P(=O)(O)CC(CCCc1ccccc1)C(=O)NC(Cc1c[nH]c2ccccc12)C(N)=O (centres unmarked) [Compound 25] | 20 | 26 | 35 | 90 | 3.5 | 29 | 16 | –
NC(=O)C(Cc1c[nH]c2ccccc12)NC(=O)C(CCCc1ccccc1)CP(=O)(O)C(Cc1ccccc1)NC(=O)COCc1ccccc1 (centres unmarked) [Compound 26] | 5 | 8 | 10 | 40 | 2.5 | 28 | 33 | –
NC(=O)C(Cc1c[nH]c2ccccc12)NC(=O)C(CCCc1ccccc1)CP(=O)(O)C(Cc1ccccc1)NC(=O)CNc1ccccc1 (centres unmarked) [Compound 27] | 15 | 17 | 6 | 73 | 4.5 | 33 | 16 | –
NC(=O)C(Cc1c[nH]c2ccccc12)NC(=O)C(CCCc1ccccc1)CP(=O)(O)C(Cc1ccccc1)NC(=O)CNc1cccc(Cl)c1 (centres unmarked) [Compound 28] | 3.8 | 9 | 6 | 45 | 4 | 63 | 25 | –
NC(=O)C(Cc1c[nH]c2ccccc12)NC(=O)C(CCCc1ccccc1)CP(=O)(O)C(Cc1ccccc1)NC(=O)CNc1cc(Cl)ccc1O (centres unmarked) [Compound 29] | 10 | 30 | 34 | 63 | 7.5 | 55 | 48 | –
NC(=O)C(Cc1c[nH]c2ccccc12)NC(=O)C(CCCc1ccccc1)CP(=O)(O)C(Cc1ccccc1)NC(=O)c1cc2c(Cl)cc(Cl)cc2[nH]1 (centres unmarked) [Compound 31] | 0.9 | 24 | 7 | 32 | 5 | – | – | inhibitory power on MMP-11, in words [1]: very powerful inhibitor; Ki (MMP-1 (HFC); Tris/50 mM HCl buffer, pH 6.8, 10 mM CaCl2, 25° C., read-out: affinity constant Ki, MMP-1 HFC): 36 nM; Ki (MMP-7 (Matrilysin)): 117 nM
NC(=O)C(Cc1c[nH]c2ccccc12)NC(=O)C(CCCc1ccccc1)CP(=O)(O)C(Cc1ccccc1)NC(=O)c1ccc2ccccc2n1 (centres unmarked) [Compound 32] | 4.2 | 19 | 13 | 60 | 5 | 78 | – | Ki (MMP-7 (Matrilysin)): 370 nM
NC(=O)C(Cc1c[nH]c2ccccc12)NC(=O)C(CCCc1ccccc1)CP(=O)(O)C(Cc1ccccc1)NC(=O)c1cc2cc(Cl)cc(Cl)c2oc1=O (centres unmarked) [Compound 33] | 5 | 100 | 110 | 217 | 17 | 47 | 37 | –
CC(NC(=O)OCc1ccccc1)C(=O)NC(Cc1ccccc1)P(=O)(O)CC(CCCc1ccccc1)C(=O)NC(Cc1c[nH]c2ccccc12)C(N)=O (centres unmarked) [Compound 34] | 8 | 11 | 10 | 41 | 5.5 | 24 | 18 | –
CC(C)CC(NC(=O)OCc1ccccc1)C(=O)NC(Cc1ccccc1)P(=O)(O)CC(CCCc1ccccc1)C(=O)NC(Cc1c[nH]c2ccccc12)C(N)=O (centres unmarked) [Compound 35] | 6 | 40 | 22 | 53 | 7 | 20 | 32 | –
